# Reference: patent publication US11285219B2, “Peptide-oligourea hybrid compounds” (UREKA SARL, priority 2019, dated 2022)
# Entries after “also recorded” stand apart in the source; their conditions may differ. Numbered stars: 1 amine (or outer) side, 2 acyl side, 3 side chain; on linkers, the order of the positions; unused ones are H or OH. Bridge positions count the residues as written; N and C are the ends. Peptide text beside a SMILES is read from it. I, II: the chains in the order shown. X2 = C[C@@H](CNC(=O)N[C@@H](C)CNC(=O)N[C@@H](C)CNC(=O)N[C@@H](C)CNC(=O)[*:2])NC(=O)NC[C@H](CCC(=O)O)NC(=O)NC[C@H](Cc1ccc(O)cc1)N[*:1]; X5 = C[C@@H](CNC(=O)N[C@@H](C)CNC(=O)[*:2])NC(=O)NC[C@H](CCC(=O)O)N[*:1]; X1 = C[C@@H](CNC(=O)N[C@@H](C)CNC(=O)[*:2])NC(=O)NC[C@H](C)N[*:1]
# Experiments:
# [1] = target: T1, mouse GLP-1 receptor endogenously expressed in βTC6 cells (Mus musculus, UniProt O35659); assay: cAMP production functional assay (HTRF), agonist activity at GLP-1R; type: cell-based; settings: for Potency (%), percentage of potency (cAMP production) compared to GLP-1-G^2: Table 2; for Potency (%), percentage of potency compare to GLP-1-G^2: cAMP production, Table 1; for EC50: receptor-mediated cAMP production, βTC6 cells, read-out: EC50 (nM), GLP-1R potency
# T1 construct: host or cells: βTC6 cells
# T1 sequence (O35659 22-463): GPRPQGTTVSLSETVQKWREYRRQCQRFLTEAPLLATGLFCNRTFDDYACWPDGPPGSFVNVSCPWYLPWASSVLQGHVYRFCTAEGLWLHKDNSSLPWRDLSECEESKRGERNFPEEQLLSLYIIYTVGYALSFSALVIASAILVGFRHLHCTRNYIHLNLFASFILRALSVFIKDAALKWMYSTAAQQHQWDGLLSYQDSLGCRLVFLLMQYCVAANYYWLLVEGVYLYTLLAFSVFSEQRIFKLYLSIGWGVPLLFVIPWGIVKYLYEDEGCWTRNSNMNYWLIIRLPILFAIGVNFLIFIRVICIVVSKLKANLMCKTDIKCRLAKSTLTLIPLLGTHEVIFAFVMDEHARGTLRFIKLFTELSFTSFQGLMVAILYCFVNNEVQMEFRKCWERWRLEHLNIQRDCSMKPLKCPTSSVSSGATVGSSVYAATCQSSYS
# Description: The agonistic activity of these hybrids were obtained by functional assays using cells expressing the […] and by measuring the receptor-mediated cAMP produced (see supporting information).
# In vitro pharmacology (EC50). […] Following incubation, the cells were lysed and the fluorescence acceptor (D2-labeled cAMP) and fluorescence donor (anti-cAMP antibody labeled with europium cryptate) were added.
# NEP 24.11 = NEP 24.11 (Homo sapiens, UniProt P08473); assay: in vitro; settings: pH 8
# Sequence of NEP 24.11 (P08473 whole entry): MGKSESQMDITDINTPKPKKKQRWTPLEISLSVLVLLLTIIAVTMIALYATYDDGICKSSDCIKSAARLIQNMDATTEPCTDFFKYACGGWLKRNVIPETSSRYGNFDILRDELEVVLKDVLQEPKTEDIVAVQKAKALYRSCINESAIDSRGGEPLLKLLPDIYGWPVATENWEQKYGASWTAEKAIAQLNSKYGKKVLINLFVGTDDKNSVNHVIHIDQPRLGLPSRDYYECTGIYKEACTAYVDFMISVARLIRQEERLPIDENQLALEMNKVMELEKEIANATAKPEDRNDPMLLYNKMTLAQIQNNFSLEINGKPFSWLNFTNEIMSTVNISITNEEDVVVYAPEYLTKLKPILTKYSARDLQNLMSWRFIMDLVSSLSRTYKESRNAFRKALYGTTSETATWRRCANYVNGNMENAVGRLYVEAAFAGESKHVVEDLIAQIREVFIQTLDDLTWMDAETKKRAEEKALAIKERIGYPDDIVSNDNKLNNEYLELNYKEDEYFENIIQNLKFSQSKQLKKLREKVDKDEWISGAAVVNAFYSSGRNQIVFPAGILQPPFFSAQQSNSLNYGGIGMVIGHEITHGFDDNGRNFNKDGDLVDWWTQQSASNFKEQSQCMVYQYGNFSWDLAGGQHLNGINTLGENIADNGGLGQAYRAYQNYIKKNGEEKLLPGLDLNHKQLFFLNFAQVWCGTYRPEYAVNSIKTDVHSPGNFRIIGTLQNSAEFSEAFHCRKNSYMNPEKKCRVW
# Description: Enzymatic and mouse plasma degradation studies.
# Enzymatic degradation (NEP 24.11). Stock solutions of the oligomers were prepared at a concentration of 400 μM in a solution of 50 mM HEPES buffer, 50 mM NaCl, 0.05% Tween-80, pH 8.0. Stock solution of NEP 24.11 was prepared at a concentration of 100 μg/mL in water. Stability of oligomers to NEP 24.11 was assessed by conducting protease reaction in a 96-well plates at 20° C. […] Each compound was also incubated in the absence of the enzyme (12 μL of HEPES buffer and 38 μL of oligomer). At the indicated time (1, 2, 4, 6 and 22 hours) an aliquot of 10 μL was removed from each experimental reaction and pipetting into 100 μL of 1% TFA solution to quench the reaction, (t=0 min was determined using the reaction without enzyme). A portion of the quenched reaction solution was analyzed by HPLC. The time course of peptide degradation was determined by integrating the area of each peak in a series of HPLC traces.
# normal mice (C57BL/6J) [2] = assay: Blood glucose experiment in healthy mice; type: in vivo, mouse; parameters: key to In vivo activity (indicator): + = active; +++: + + + = more active; settings: for effect on blood glucose concentration / time the decrease of blood glucose is preserved after dosing: fed normal mice, 5 μg/mouse i.v.; for effect on blood glucose concentration: monitored 6 h; for In vivo activity (indicator): blood glucose, mice, i.v.
# Description: In the first study, we evaluated the effect of the analogues on the blood glucose concentration of normal mice (FIG. 4). The fed mice were treated with the analogues and their blood glucose concentration was monitored before and after dosing for 6 h. […] Indeed, a decrease of blood glucose concentration is observed after 30 min and the effect is preserved for 4 h after dosing.
# Blood glucose experiment in healthy mice. After the acclimation period (at least 5 days), mice (male C57BL/6J mice (Charles River laboratories) (8 weeks old, 20-25 g)) were randomized into 10 groups (n=3/group) according to their body weight. They were acutely treated via i.v. route at 10 AM (5 μg/mouse). Blood glucose was measured before dosing and at 30 min, 1, 2, 4, 6 h after dosing in fed conditions.
# normal mice (C57BL/6J) [3] = assay: Intra peritoneal glucose tolerance test (IPGTT) in fasted normal mice; type: in vivo, mouse
# Description: In a second study, an IPGTT was performed 30 min after i.v. injections of 1, 14 and the vehicle (FIGS. 5B1 and 5B2). […] A further IPGTT study was done with a glucose challenge after 2 h of the dosing to investigate the prolong activity of hybrids 14, 22, and 23 (FIGS. 5C1 and 5C2).
# IPGTT experiments in mice. After the acclimation period (at least 5 days), mice (male C57BL/6J mice (Charles River laboratories) (6 weeks old, 20-24 g)) were randomized into 6 groups (n=6/group) according to their body weight. The mice were fasted for 6 h prior being acutely treated via i.v. route (5 μg/mouse i.v. (200 μg/kg, 50 nmol/kg)) formulated at 20 μg/mL in PBS 1×. The IPGTTs were performed (glucose 2 g/kg i.p.) 5 min, 30 min, 2 h or 4 h after dosing and blood glucose was measured 30, 60, 90 and 120 min after the glucose challenge.
Compound,"Potency (%), percentage of potency (cAMP production) compared to GLP-1-G^2 [1]","Potency (%), percentage of potency compare to GLP-1-G^2 [1]",half-life at […] (NEP 24.11),effect on blood glucose concentration (normal mice (C57BL/6J) [2]),EC50 [1],In vivo activity (indicator) (normal mice (C57BL/6J) [2]),time the decrease of blood glucose is preserved after dosing (normal mice (C57BL/6J) [2]),"activity in IPGTT 5 min after dosing, 60 min after the glucose challenge (normal mice (C57BL/6J) [3]; 65 min after dosing, compared to vehicle)","IPGTT 2 h after dosing (normal mice (C57BL/6J) [3]; fasted mice, 200 μg/kg i.v.)","IPGTT 4 h after dosing (normal mice (C57BL/6J) [3]; fasted mice, 200 μg/kg i.v.)","activity in IPGTT 30 min after dosing (normal mice (C57BL/6J) [3]; fasted mice, 200 μg/kg i.v.)","activity in IPGTT 5 min after dosing (normal mice (C57BL/6J) [3]; fasted mice, 200 μg/kg i.v., glucose 2 g/kg i.p.)",loss of affinity with GLP-1R compared to the native peptide [1]
"CC[C@H](C)[C@H](NC(=O)[C@H](Cc1ccccc1)NC(=O)[C@H](CCC(=O)O)NC(=O)[C@H](CCCCN)NC(=O)[C@H](C)NC(=O)NC[C@H](C)NC(=O)NC[C@H](C)NC(=O)NC[C@H](CCC(=O)O)NC(=O)[C@H](CC(C)C)NC(=O)[C@H](Cc1ccc(O)cc1)NC(=O)[C@H](CO)NC(=O)[C@H](CO)NC(=O)[C@@H](NC(=O)[C@H](CC(=O)O)NC(=O)[C@H](CO)NC(=O)[C@@H](NC(=O)[C@H](Cc1ccccc1)NC(=O)[C@@H](NC(=O)CNC(=O)[C@H](CCC(=O)O)NC(=O)CNC(=O)[C@@H](N)Cc1c[nH]cn1)[C@@H](C)O)[C@@H](C)O)C(C)C)C(=O)N[C@@H](C)C(=O)N[C@@H](Cc1c[nH]c2ccccc12)C(=O)N[C@@H](CC(C)C)C(=O)N[C@H](C(=O)N[C@@H](CCCCN)C(=O)NCC(=O)N[C@@H](CCCNC(=N)N)C(=O)NCC(N)=O)C(C)C [Compound 11, GG2[E^UA^UA^U]^15-18] (I: H-HGEGTFTSDVSSYL / II: AKEFIAWLVKGRG-NH2; linker I:C-II:N via X5)",13%,13%,3.9 h,no activity; also recorded: no effect,–,–,–,–,–,–,–,–,–
"CC[C@H](C)[C@H](NC(=O)[C@H](Cc1ccccc1)NC(=O)NC[C@H](C)NC(=O)NC[C@H](C)NC(=O)NC[C@H](C)NC(=O)[C@H](CCC(N)=O)NC(=O)CNC(=O)[C@H](CCC(=O)O)NC(=O)[C@H](CC(C)C)NC(=O)[C@H](Cc1ccc(O)cc1)NC(=O)[C@H](CO)NC(=O)[C@H](CO)NC(=O)[C@@H](NC(=O)[C@H](CC(=O)O)NC(=O)[C@H](CO)NC(=O)[C@@H](NC(=O)[C@H](Cc1ccccc1)NC(=O)[C@@H](NC(=O)CNC(=O)[C@H](CCC(=O)O)NC(=O)CNC(=O)[C@@H](N)Cc1c[nH]cn1)[C@@H](C)O)[C@@H](C)O)C(C)C)C(=O)N[C@@H](C)C(=O)N[C@@H](Cc1c[nH]c2ccccc12)C(=O)N[C@@H](CC(C)C)C(=O)N[C@H](C(=O)N[C@@H](CCCCN)C(=O)NCC(=O)N[C@@H](CCCNC(=N)N)C(=O)NCC(N)=O)C(C)C [Compound 14, GG2[A^UA^UA^U]^18-21] (I: H-HGEGTFTSDVSSYLEGQ / II: FIAWLVKGRG-NH2; linker I:C-II:N via X1)",6%,6%,4.9 h,improved efficacy,4.1 nM,+++,4 h,still active,good control of the blood glucose concentration,still active after 6 h of the treatment,full activity,active,–
"CC[C@H](C)[C@@H](CNC(=O)N[C@@H](C)CNC(=O)N[C@@H](CC(C)C)C(=O)N[C@H](C(=O)N[C@@H](CCCCN)C(=O)NCC(=O)N[C@@H](CCCNC(=N)N)C(=O)NCC(N)=O)C(C)C)NC(=O)N[C@@H](CNC(=O)[C@H](CCC(=O)O)NC(=O)[C@H](CCCCN)NC(=O)[C@H](C)NC(=O)[C@H](C)NC(=O)[C@H](CCC(N)=O)NC(=O)CNC(=O)[C@H](CCC(=O)O)NC(=O)[C@H](CC(C)C)NC(=O)[C@H](Cc1ccc(O)cc1)NC(=O)[C@H](CO)NC(=O)[C@H](CO)NC(=O)[C@@H](NC(=O)[C@H](CC(=O)O)NC(=O)[C@H](CO)NC(=O)[C@@H](NC(=O)[C@H](Cc1ccccc1)NC(=O)[C@@H](NC(=O)CNC(=O)[C@H](CCC(=O)O)NC(=O)CNC(=O)[C@@H](N)Cc1c[nH]cn1)[C@@H](C)O)[C@@H](C)O)C(C)C)Cc1ccccc1 [Compound 16, GG2[F^UαI^UA^U]^22-25]",0.4%,0.4%,1.8 h,no activity; also recorded: no effect,62 nM,–,–,–,–,–,–,–,over a hundred fold loss
"CC[C@H](C)[C@H](NC(=O)[C@H](Cc1ccccc1)NC(=O)NC[C@H](C)NC(=O)NC[C@H](C)NC(=O)NC[C@H](C)NC(=O)NC[C@H](C)NC(=O)NC[C@H](CCC(=O)O)NC(=O)NC[C@H](Cc1ccc(O)cc1)NC(=O)[C@H](Cc1ccc(O)cc1)NC(=O)[C@H](CO)NC(=O)[C@H](CO)NC(=O)[C@@H](NC(=O)[C@H](CC(=O)O)NC(=O)[C@H](CO)NC(=O)[C@@H](NC(=O)[C@H](Cc1ccccc1)NC(=O)[C@@H](NC(=O)CNC(=O)[C@H](CCC(=O)O)NC(=O)CNC(=O)[C@@H](N)Cc1c[nH]cn1)[C@@H](C)O)[C@@H](C)O)C(C)C)C(=O)N[C@@H](C)C(=O)N[C@@H](Cc1c[nH]c2ccccc12)C(=O)N[C@@H](CC(C)C)C(=O)N[C@H](C(=O)N[C@@H](CCCCN)C(=O)NCC(=O)N[C@@H](CCCNC(=N)N)C(=O)NCC(N)=O)C(C)C [Compound 23, GG2[Y^uE^uA^uA^uA^uA^u]^14-21] (I: H-HGEGTFTSDVSSY / II: FIAWLVKGRG-NH2; linker I:C-II:N via X2)",7%,7%,6.1 h,improved efficacy,3.4 nM,+++,4 h,–,good control of the blood glucose concentration,–,–,–,–
